Reference: ChEMBL document CHEMBL1201862, “PubChem BioAssay data set” (2004)
Blank lines part the entries; values can stand above or below the compound they belong to. The source made the active and inactive calls.

Key:
T-cell = test: inhibitors of CD8+ T cell–vesicle binding, dose response, mouse 2C CD8+ T cells, flow cytometry (AID 485284); assay type: functional
[1] = biological target: Type-1 angiotensin II receptor (Homo sapiens, UniProt P30556); test: AT1 receptor agonists, dose response, selectivity assay for APJ receptor agonist project, cell-based, uHTS hits (AID 488865); assay type: functional;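 note: beta-arrestin recruitment to AT1 measured by enzyme fragment complementation luminescence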
Coagulation factor XII = biological target: T1, Coagulation factor XII (Homo sapiens, UniProt P00748); assay type: functional;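 note: activated factor XIIa alpha cleaving a fluorogenic AMC peptide substrate; inhibitor potency from loss of enzyme activity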
T1 sequence (P00748 whole entry): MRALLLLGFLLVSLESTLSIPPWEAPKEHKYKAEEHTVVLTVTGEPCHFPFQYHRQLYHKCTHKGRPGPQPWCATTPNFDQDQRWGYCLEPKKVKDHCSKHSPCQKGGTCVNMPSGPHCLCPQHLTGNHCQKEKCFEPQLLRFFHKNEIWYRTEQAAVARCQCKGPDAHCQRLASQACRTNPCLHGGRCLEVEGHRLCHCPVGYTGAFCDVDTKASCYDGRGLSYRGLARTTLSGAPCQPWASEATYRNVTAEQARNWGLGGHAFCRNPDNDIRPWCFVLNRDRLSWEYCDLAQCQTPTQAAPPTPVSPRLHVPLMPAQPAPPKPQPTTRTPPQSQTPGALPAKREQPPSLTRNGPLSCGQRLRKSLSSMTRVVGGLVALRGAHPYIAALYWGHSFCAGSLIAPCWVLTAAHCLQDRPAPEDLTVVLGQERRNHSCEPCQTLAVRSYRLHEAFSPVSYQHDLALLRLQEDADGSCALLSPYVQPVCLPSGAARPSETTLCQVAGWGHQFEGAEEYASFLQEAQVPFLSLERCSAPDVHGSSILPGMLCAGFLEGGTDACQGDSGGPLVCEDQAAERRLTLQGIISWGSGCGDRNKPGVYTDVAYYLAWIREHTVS

[2] = cytotoxicity in HPDE-C7 cells, cell-based, fluorescence, HTS (AID 430); assay type: functional; details: Homo sapiens
[3] = cytotoxicity in KRAS-transformed pancreatic duct cells, primary screen, cell-based, fluorescence, HTS (AID 431); assay type: functional; details: Homo sapiens;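 note: cell line used: HPDE-C7K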
[4] = biological target: T2, Short transient receptor potential channel 4 (Mus musculus, UniProt Q9QUQ5); test: TRPC4 positive allosteric modulators, dose response, cell-based, HEK293 TRPC4/mu-opioid, Fluo-4 calcium, EC20 DAMGO (AID 434941); assay type: functional
T2 sequence (Q9QUQ5 whole entry): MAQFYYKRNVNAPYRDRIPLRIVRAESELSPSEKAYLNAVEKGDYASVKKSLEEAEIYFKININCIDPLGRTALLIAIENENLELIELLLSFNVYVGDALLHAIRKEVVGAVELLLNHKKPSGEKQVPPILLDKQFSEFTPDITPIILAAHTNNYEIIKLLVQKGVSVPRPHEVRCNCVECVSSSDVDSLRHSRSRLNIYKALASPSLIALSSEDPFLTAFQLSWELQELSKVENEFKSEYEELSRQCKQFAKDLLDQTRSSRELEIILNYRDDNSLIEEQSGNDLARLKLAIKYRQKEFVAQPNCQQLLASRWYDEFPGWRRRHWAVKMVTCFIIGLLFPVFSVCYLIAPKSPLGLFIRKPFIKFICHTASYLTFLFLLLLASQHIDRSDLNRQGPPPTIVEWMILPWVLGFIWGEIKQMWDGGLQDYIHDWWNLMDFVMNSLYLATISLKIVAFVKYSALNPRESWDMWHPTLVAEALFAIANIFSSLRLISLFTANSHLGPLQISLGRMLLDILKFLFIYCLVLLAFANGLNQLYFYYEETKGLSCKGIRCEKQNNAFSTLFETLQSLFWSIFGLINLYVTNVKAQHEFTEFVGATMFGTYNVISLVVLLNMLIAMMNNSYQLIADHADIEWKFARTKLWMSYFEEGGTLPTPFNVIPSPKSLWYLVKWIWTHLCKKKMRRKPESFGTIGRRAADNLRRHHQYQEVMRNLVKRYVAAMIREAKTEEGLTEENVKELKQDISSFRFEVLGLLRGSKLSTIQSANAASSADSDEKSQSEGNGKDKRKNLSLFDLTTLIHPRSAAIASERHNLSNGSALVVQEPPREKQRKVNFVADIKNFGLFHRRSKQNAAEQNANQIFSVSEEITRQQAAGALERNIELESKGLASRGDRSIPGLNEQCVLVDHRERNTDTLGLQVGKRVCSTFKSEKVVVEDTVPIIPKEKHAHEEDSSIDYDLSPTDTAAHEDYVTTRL

[5] = biological target: T2, Short transient receptor potential channel 4; test: mouse TRPC4 channel activators, dose response, cell-based, HEK293 TRPC4/mu-opioid, Fluo-4 calcium (AID 434937); assay type: functional
[6] = biological target: T3, Heat shock factor protein 1 (Mus musculus, UniProt P38532); test: HSF1 potentiators in luciferase reporter cells, confirmation, cell-based, NIH3T3, luminescence, dose retest (AID 435004); assay type: functional;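 note: stress induced by proteasome inhibitor MG132 added 30 min after compound; luciferase reporter driven by HSF1 response element in NIH3T3 cells; actives raise luminescence as potentiators of the MG132 stress response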
T3 sequence (P38532 whole entry): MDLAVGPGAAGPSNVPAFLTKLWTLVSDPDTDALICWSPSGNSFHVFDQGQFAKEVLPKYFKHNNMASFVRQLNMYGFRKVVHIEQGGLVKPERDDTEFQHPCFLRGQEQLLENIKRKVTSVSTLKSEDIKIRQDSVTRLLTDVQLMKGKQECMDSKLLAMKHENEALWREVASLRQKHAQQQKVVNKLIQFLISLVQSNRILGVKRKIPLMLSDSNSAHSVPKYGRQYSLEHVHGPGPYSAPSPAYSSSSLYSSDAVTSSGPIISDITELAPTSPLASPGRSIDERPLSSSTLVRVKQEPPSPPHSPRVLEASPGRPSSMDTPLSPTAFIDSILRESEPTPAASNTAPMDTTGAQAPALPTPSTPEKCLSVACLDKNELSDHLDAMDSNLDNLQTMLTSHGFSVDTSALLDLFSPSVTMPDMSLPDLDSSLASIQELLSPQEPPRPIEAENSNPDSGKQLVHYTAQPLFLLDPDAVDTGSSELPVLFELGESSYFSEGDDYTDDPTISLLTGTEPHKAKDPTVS

[7] = biological target: T4, High affinity choline transporter 1 (Homo sapiens, UniProt Q9GZV3); test: CHT inhibitors, dose response, cell-based, 5-point CRC, membrane potential dye (AID 504840); assay type: functional
T4 sequence (Q9GZV3 whole entry): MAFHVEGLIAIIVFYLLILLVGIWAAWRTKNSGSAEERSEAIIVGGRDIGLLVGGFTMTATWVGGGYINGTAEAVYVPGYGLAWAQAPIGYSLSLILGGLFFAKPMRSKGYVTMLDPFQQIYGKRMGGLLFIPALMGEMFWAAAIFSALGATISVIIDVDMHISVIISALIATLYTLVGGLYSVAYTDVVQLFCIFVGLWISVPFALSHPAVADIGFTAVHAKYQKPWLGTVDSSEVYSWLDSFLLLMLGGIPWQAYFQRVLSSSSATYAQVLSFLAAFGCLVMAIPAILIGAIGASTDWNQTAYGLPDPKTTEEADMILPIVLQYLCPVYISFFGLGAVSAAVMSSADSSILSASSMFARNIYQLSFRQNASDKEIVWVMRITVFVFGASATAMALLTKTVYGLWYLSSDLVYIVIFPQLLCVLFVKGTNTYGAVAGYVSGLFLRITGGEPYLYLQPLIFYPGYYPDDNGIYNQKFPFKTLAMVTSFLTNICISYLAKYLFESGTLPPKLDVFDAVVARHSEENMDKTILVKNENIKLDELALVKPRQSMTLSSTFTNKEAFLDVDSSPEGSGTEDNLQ

Hexokinase = Hexokinase (Trypanosoma brucei, UniProt Q38C41); test: Confirmation assay for inhibitors of Trypanosoma brucei hexokinase 1-Analogue-first series. [Related pubchem assays (depositor defined):AID1430, AID1632, AID2516, AID2560, AID2579, AID2600, AID449725, AID492951]; assay type: functional
[8] = biological target: T5, Tyrosine-protein phosphatase non-receptor type 7 (Homo sapiens, UniProt P35236); test: SAR analysis of chemical inhibitors of HePTP using a Fluorescent assay - Set 2. [Related pubchem assays (depositor defined):AID1059, AID1077, AID1661, AID2085, AID521]; assay type: functional
T5 sequence (P35236 whole entry): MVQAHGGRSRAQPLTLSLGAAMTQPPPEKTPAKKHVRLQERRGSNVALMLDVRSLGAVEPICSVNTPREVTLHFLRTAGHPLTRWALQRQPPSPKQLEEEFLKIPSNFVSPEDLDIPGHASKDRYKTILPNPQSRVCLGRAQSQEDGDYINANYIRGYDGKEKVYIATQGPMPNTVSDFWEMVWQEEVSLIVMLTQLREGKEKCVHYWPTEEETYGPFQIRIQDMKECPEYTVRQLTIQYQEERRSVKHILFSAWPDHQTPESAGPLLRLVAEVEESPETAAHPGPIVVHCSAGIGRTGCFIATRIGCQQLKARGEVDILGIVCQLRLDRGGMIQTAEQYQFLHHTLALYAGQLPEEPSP

[9] = biological target: Dual specificity protein phosphatase 3 (Homo sapiens, UniProt P51452); test: SAR VHR1 Fluorescent Assay for In Vitro dose response studies Set 2. [Related pubchem assays (depositor defined):AID1654, AID1661, AID1878]; assay type: functional
[10] = biological target: T6, Sphingosine 1-phosphate receptor 4 (Homo sapiens, UniProt O95977); test: S1P4 receptor agonists, human, late-stage follow-up, cell-based, fluorescence, synthesized compounds (AID 463107); assay type: functional
T6 sequence (O95977 whole entry): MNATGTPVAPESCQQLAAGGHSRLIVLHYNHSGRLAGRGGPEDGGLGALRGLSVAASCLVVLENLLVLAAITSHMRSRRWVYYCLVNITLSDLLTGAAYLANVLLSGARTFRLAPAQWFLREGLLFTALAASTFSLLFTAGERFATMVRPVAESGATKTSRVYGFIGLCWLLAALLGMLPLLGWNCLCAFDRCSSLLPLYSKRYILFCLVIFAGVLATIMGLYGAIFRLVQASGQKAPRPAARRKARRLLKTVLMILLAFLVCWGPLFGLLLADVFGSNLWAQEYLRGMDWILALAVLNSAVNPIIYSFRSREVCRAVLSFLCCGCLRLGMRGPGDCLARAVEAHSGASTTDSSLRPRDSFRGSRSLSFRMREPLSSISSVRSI

Ion channel NompC = Ion channel NompC (Danio rerio, UniProt Q7T1G6); test: Dose response cell-based high-throughput screening assay for agonists of the transient receptor potential channel N1 (TRPN1). [Related pubchem assays (depositor defined):AID1424, AID1448]; assay type: functional
Mucolipin-3 = Mucolipin-3 (Homo sapiens, UniProt Q8TDD5); test: Fluorescence counterscreen assay for […] agonists: dose response cell-based high-throughput screening assay to identify agonists of the transient receptor potential channel ML3 (TRPML3). [Related pubchem assays: 1424, 1448 ]; assay type: functional
[11] = biological target: Photoreceptor-specific nuclear receptor (Homo sapiens, UniProt Q9Y5X4); assay type: functional, cell-based;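 note: CHO-S cells with Gal4-NCOR and VP16-NR2E3 two-hybrid luciferase reporter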
Chain of Photoreceptor-specific nuclear receptor (Q9Y5X4 whole entry, the tested form may be a part): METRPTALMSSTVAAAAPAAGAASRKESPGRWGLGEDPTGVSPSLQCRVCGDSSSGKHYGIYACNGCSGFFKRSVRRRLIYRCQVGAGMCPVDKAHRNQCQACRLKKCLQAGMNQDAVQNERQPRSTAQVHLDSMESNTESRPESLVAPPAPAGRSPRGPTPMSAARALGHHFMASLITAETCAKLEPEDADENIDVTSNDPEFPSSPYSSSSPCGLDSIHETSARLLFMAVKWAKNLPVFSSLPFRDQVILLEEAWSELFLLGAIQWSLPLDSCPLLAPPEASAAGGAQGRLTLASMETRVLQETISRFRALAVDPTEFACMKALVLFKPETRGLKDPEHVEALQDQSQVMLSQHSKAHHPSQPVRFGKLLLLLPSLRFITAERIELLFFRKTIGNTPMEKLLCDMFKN

Chain of Ion channel NompC (Q7T1G6 whole entry): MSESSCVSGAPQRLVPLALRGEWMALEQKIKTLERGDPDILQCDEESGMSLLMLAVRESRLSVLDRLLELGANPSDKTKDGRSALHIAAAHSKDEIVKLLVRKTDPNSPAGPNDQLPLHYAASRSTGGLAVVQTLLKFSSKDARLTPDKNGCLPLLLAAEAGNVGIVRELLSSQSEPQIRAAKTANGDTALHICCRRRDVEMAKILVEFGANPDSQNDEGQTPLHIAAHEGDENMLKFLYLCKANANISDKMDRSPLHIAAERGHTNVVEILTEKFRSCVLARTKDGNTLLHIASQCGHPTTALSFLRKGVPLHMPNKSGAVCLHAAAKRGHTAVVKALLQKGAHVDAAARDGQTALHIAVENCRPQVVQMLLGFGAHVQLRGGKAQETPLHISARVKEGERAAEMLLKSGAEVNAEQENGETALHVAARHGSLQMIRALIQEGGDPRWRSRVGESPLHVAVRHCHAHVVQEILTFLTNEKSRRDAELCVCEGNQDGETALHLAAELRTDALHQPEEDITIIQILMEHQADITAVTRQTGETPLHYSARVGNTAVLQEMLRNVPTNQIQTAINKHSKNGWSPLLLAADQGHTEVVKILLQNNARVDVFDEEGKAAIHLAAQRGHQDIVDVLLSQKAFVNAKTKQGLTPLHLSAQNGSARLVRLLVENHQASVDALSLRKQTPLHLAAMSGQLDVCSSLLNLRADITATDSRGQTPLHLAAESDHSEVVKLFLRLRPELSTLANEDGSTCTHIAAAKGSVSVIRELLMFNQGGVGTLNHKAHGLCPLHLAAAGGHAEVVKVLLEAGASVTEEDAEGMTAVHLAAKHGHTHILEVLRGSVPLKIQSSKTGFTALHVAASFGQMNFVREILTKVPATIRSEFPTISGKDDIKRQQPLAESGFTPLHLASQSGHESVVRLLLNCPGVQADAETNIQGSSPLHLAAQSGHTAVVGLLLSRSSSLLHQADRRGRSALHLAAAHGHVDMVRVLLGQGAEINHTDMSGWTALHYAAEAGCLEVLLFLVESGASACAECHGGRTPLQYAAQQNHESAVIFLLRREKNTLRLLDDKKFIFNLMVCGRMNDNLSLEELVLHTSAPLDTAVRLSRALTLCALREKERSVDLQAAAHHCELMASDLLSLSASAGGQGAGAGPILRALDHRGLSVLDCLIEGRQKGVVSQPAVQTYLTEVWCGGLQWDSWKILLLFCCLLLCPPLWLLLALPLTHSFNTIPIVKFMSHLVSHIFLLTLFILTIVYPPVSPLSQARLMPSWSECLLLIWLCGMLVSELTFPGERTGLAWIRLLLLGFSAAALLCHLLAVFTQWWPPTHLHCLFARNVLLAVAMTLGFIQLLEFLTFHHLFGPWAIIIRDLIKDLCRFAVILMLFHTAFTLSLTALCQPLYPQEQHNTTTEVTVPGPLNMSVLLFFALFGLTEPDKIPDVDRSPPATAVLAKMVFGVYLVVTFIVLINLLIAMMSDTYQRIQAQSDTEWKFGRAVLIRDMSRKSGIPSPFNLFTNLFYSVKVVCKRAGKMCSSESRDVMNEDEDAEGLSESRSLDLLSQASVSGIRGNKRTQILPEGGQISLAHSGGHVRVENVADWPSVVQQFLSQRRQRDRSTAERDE
Chain of Mucolipin-3 (Q8TDD5 whole entry, the tested form may be a part): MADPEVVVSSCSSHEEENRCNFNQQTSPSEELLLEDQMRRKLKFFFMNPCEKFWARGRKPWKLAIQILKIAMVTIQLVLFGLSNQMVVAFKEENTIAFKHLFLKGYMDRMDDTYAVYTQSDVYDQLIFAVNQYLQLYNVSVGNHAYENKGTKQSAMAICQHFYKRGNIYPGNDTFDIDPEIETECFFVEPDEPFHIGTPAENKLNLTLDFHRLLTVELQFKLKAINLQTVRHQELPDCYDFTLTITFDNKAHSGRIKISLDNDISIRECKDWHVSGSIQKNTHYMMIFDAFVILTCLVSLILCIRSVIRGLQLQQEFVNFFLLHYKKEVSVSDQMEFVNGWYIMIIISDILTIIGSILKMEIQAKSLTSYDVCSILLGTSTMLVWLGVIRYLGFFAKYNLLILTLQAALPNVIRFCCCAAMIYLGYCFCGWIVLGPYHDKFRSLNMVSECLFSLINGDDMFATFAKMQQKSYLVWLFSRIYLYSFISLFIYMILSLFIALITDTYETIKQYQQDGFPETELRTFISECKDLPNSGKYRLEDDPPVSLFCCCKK
Chain of Type-1 angiotensin II receptor (P30556 whole entry, the tested form may be a part): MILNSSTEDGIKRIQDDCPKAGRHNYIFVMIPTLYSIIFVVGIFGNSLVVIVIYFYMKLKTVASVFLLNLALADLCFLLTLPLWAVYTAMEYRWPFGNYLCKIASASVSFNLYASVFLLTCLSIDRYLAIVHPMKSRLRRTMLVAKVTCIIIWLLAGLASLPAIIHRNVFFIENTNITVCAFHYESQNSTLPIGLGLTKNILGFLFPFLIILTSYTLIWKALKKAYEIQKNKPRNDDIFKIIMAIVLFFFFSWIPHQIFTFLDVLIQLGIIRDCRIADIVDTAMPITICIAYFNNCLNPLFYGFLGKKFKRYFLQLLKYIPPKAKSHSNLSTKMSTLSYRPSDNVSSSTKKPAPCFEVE
Chain of Dual specificity protein phosphatase 3 (P51452 whole entry): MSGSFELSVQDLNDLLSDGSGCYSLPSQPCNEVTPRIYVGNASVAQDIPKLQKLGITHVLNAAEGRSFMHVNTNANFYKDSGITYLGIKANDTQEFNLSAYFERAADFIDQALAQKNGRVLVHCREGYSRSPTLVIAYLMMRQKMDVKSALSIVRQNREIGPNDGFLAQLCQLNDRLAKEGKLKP
Chain of Hexokinase (Q38C41 whole entry): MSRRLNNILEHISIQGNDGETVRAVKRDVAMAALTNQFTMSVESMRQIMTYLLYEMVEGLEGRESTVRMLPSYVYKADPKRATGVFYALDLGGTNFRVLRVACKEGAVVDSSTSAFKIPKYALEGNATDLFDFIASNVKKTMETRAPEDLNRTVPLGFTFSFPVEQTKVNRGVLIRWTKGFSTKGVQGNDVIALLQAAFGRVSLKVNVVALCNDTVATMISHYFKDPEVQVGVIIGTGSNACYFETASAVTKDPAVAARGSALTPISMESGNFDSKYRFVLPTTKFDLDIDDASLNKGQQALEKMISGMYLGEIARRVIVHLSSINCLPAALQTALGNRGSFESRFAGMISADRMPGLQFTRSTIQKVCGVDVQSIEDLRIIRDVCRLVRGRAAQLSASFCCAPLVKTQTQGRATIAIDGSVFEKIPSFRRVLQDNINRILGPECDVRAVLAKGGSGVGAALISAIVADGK

SMILES: O=C(NCCN1CCN(c2ccccc2)CC1)c1cccc(Br)c1
- EC50 (T-cell): 7.17 µM (active)

SMILES: CCCc1cc(C(=O)Nc2sc3c(c2C(=O)OCC)CCCC3)no1
- EC50 [1]: > 100 µM (inactive)

SMILES: CCCCc1cc(O)c(CCCC)c(O)c1
- EC50 [2]: 8.86 µM (active)
- EC50 [3]: 9.78 µM (active)
- EC50 [4]: 1.88 µM (active)
- EC50 [5]: 0.473 µM (active)
- EC50 [6]: 9.33 µM (active)
- IC50 [7]: 6.03 µM (active)

SMILES: O=C(Nc1cc(Cl)ccc1C(=O)O)c1ccc(C(F)(F)F)cc1
- IC50 (Hexokinase): > 25 µM (inactive)

SMILES: S=C(Nc1ccccc1)N1CCN(Cc2ccc3c(c2)OCO3)CC1
- IC50 [8]: > 100 µM (inactive)
- IC50 [9]: > 100 µM (inactive)

Other lines, results leading:

- IC50 (Coagulation factor XII): 1.05 µM (active)
SMILES: COC(=O)c1n[nH]c(NC(=O)c2ccccc2Cl)n1

- EC50 [10]: 12 µM (inactive)
SMILES: COCc1ccc(OCCOc2ccc(Cl)cc2Cl)c(Cl)n1

- EC50 (Ion channel NompC): > 9.97 µM (inactive)
- EC50 (Mucolipin-3): > 29.9 µM (not active)
- IC50 [11]: 1.29 µM (active)
SMILES: N#C/C(=N\Nc1ccc(Cl)c(Cl)c1)C(=O)C1CC1
